{
  "source": "patent US20160251350A1",
  "about": "“CRYSTALLINE FORMS OF A PYRROLOPYRIDINE COMPOUND” (Genentech, Inc., priority 2015, published 2016)",
  "key": {"[1]": {"test": "Hygroscopicity / water re-absorption at controlled relative humidity (DVS)", "format": "physicochemical", "from_the_text": "The present invention is directed, inter alia, to crystalline forms of (R)—N-(4-(3-aminopiperidin-1-yl)-5-bromo-1H-pyrrolo[2,3-b]pyridin-3-yl)cyclopropanecarboxamide and salts, hydrates, and solvates thereof. The crystalline forms of the present invention can be identified by unique solid state signatures with respect to, for example, differential scanning calorimetry (DSC), X-ray powder diffraction (XRPD), and other solid state methods. Further characterization with respect to water or solvent content of the crystalline forms of the present invention can be gauged by any of the following methods for example, thermogravimetric analysis (TGA), DSC and the like. For DSC, it is known that the temperatures observed will depend upon sample purity, the rate of temperature change, as well as sample preparation technique and the particular instrument employed. Thus, the values reported herein relating to DSC thermograms can vary by about ±6° C. For desolvation events, DSC thermograms may vary by more than ±6° C. depending on instrument configuration and/or sample quantity. The values reported herein relating to DSC thermograms can also vary by about ±20 joules per gram. For XRPD, the relative intensities of the peaks can vary, depending upon the sample preparation technique, the sample mounting procedure and the particular instrument employed. Moreover, instrument variation and other factors can often affect the 2θ values. Therefore, the peak assignments of diffraction patterns can vary by about ±0.2 ° 2θ. The relative intensities of the reported peaks can also vary. For TGA, the features reported herein can vary by about ±5° C. The TGA features reported herein can also vary by about ±2% weight change due to, for example, sample variation. Further characterization with respect to hygroscopicity of the crystalline form can be gauged by, for example, dynamic vapor sorption (DVS). The DVS features reported herein can vary by about ±5% relative humidity. The DVS features reported herein can also vary by about ±5% weight change.\n(R)—N-(4-(3-aminopiperidin-1-yl)-5-bromo-1H-pyrrolo[2,3-b]pyridin-3-yl)cyclopropanecarboxamide di-ethane sulfonic acid salt: (R)—N-(4-(3-aminopiperidin-1-yl)-5-bromo-1H-pyrrolo[2,3-b]pyridin-3-yl)cyclopropanecarboxamide di-ethanesulfonic acid salt hydrate was heated to 130° C. in a DSC apparatus and then cooled to room temperature. […] The physical properties of the non-solvated di-esylate salt of (R)—N-(4-(3-aminopiperidin-1-yl)-5-bromo-1H-pyrrolo[2,3-b]pyridin-3-yl)cyclopropanecarboxamide are summarized in Table 50 below."}, "[2]": {"test": "Abbreviated excipient compatibility study at 50° C. with 20% H2O added", "format": "physicochemical", "conditions": "4 weeks, common diluents and disintegrants", "method": "To further investigate the chemical properties of these crystal forms, an abbreviated excipient compatibility study was run at 50° C. with 20% H2O added. The excipients used in the study consisted of common diluents and disintegrants and the study was conducted over a period of 4 weeks."}, "[3]": {"test": "Powder-in-Capsule (PiC) formulation stability", "format": "physicochemical", "conditions": "15 mg in Size 0 hard gelatin capsules, 2-months at 5° C., ambient and accelerated conditions", "method": "(§1) Chemical characteristics of (R)—N-(4-(3-aminopiperidin-1-yl)-5-bromo-1H-pyrrolo[2,3-b]pyridin-3-yl)cyclopropanecarboxamide free base (Form A) and maleate salt crystal forms: The stability of the crystal forms described in Examples 4 and 27 was measured neat as well as in a Powder-in-Capsule (PiC) formulation. The stability as neat powder was measured over a period of 1-year for the free base and 3-months for the maleate salt, under ambient (25° C./60% RH) and accelerated (40° C./75% RH) conditions. […] It should be noted that the maleate salt used in the neat powder stability study contained high levels (˜9% wt./wt.) of residual tetrahydrofuran (THF). The PiC stability using 15 mg of (R)—N-(4-(3-aminopiperidin-1-yl)-5-bromo-1H-pyrrolo[2,3-b]pyridin-3-yl)cyclopropanecarboxamide in Size 0 hard gelatin capsules was carried out over a period of 2-months at 5° C., ambient and accelerated conditions."}, "[4]": {"test": "Oral absorption of PiC formulations versus solution, preclinical pharmacokinetic study", "format": "in vivo", "conditions": "canines, 3 mg/kg, crossover", "method": "Biological characteristics of (R)—N-(4-(3-aminopiperidin-1-yl)-5-bromo-1H-pyrrolo[2,3-b]pyridin-3-yl)cyclopropanecarboxamide free base (Form A) and maleate salt crystal forms: The oral absorption of the crystal forms described in Examples 4 and 27 as PiC formulations was investigated in a preclinical pharmacokinetic study conducted in canines using a reduced Latin square crossover design at 3 mg/kg to compare the solid formulations to a solution of (R)—N-(4-(3-aminopiperidin-1-yl)-5-bromo-1H-pyrrolo[2,3-b]pyridin-3-yl)cyclopropanecarboxamide."}, "[5]": {"test": "Neat powder stability under ambient (25° C./60% RH) and accelerated (40° C./75% RH) conditions", "format": "physicochemical", "method": "as §1"}, "Aqueous solubility": {"test": "Aqueous solubility", "format": "physicochemical"}},
  "data": [
    {"smiles": "Cl.Cl.N[C@@H]1CCCN(c2c(Br)cnc3[nH]cc(NC(=O)C4CC4)c23)C1", "note": "[Example 29, (R)—N-(4-(3-aminopiperidin-1-yl)-5-bromo-1H-pyrrolo[2,3-b]pyridin-3-yl)cyclopropanecarboxamide di-HCl salt]", "values": [
      {"measurement": "DVS form conversion", "setting": "[1]; above 80% RH", "value": "dihydrate form above 80% RH."},
      {"measurement": "DVS hygroscopicity", "setting": "[1]; below 80% RH", "value": "Non-hygroscopic below 80% RH. Converts to a crystalline"}
    ]},
    {"smiles": "Br.Br.N[C@@H]1CCCN(c2c(Br)cnc3[nH]cc(NC(=O)C4CC4)c23)C1", "note": "[Example 30, (R)—N-(4-(3-aminopiperidin-1-yl)-5-bromo-1H-pyrrolo[2,3-b]pyridin-3-yl)cyclopropanecarboxamide di-HBr salt]", "values": [
      {"measurement": "DVS hygroscopicity", "setting": "[1]; below 80% RH", "value": "Non-hygroscopic below 80% RH. Upon desorption the solids"}
    ]},
    {"smiles": "N[C@@H]1CCCN(c2c(Br)cnc3[nH]cc(NC(=O)C4CC4)c23)C1", "note": "[Form A, (R)—N-(4-(3-aminopiperidin-1-yl)-5-bromo-1H-pyrrolo[2,3-b]pyridin-3-yl)cyclopropanecarboxamide Form A]", "values": [
      {"measurement": "Degradation with excipients", "setting": "[2]; listed as free base", "value": "significant degradation with lactose and Ac-Di-Sol® (croscarmellose sodium)"},
      {"measurement": "Degradation with excipients", "setting": "[2]; listed as free base Form A", "value": "more stable with excipients than the maleate salt"},
      {"measurement": "PiC stability", "setting": "[3]", "value": "did not cause any significant physical or chemical degradation"},
      {"measurement": "Oral absorption", "setting": "[4]", "value": "no significant differences in absorption"},
      {"measurement": "Stability as neat powder", "setting": "[5]; 1-year, ambient (25° C./60% RH) and accelerated (40° C./75% RH)", "value": "very good stability with no chiral or achiral degradation observed under any condition"},
      {"measurement": "solubility", "setting": "Aqueous solubility; 0.1N HCl, simulated gastric fluid", "value": 49900, "unit": "µg/mL"},
      {"measurement": "solubility", "setting": "Aqueous solubility; FasSIF pH 6.8", "value": 2400, "unit": "µg/mL"},
      {"measurement": "solubility", "setting": "Aqueous solubility; fessif, FedSIF pH 5", "value": 10200, "unit": "µg/mL"},
      {"measurement": "solubility", "setting": "Aqueous solubility; water, H2O", "value": 120, "unit": "µg/mL"}
    ]},
    {"smiles": "CCS(=O)(=O)O.CCS(=O)(=O)O.N[C@@H]1CCCN(c2c(Br)cnc3[nH]cc(NC(=O)C4CC4)c23)C1", "note": "[anhydrate, (R)—N-(4-(3-aminopiperidin-1-yl)-5-bromo-1H-pyrrolo[2,3-b]pyridin-3-yl)cyclopropanecarboxamide di-ethane sulfonic acid salt]", "values": [
      {"measurement": "Water re-absorption", "setting": "[1]; 80% RH", "value": "re-absorbs water at 80% RH"}
    ]},
    {"smiles": "N[C@@H]1CCCN(c2c(Br)cnc3[nH]cc(NC(=O)C4CC4)c23)C1.O=C(O)/C=C\\C(=O)O", "note": "[maleate salt, Maleic acid salt of (R)—N-(4-(3-aminopiperidin-1-yl)-5-bromo-1H-pyrrolo[2,3-b]pyridin-3-yl)cyclopropanecarboxamide]", "values": [
      {"measurement": "Degradation with excipients", "setting": "[2]", "value": "significant degradation with all excipients investigated"},
      {"measurement": "PiC stability", "setting": "[3]", "value": "stable"},
      {"measurement": "Oral absorption", "setting": "[4]", "value": "no significant differences in absorption"},
      {"measurement": "Stability as neat powder", "setting": "[5]; 3-months, ambient and accelerated conditions, material contained ~9% wt./wt. residual THF", "value": "very slight degradation under accelerated conditions"},
      {"measurement": "Aqueous Solubility", "setting": "Aqueous solubility; at pH ≦7", "value": ">10", "unit": "at pH ≦7 mg/mL"},
      {"measurement": "DVS hygroscopicity", "setting": "[1]; at 80% RH", "value": "Non-hygroscopic"},
      {"measurement": "DVS weight gain", "setting": "[1]; at 80% RH", "value": 0.3, "unit": "% wt./wt."}
    ]}
  ]
}
